Laboratory results reported in ChEMBL document CHEMBL1201862, “PubChem BioAssay data set” (2004).
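In this assay, cells in 96-well plates receive the compound at five concentrations for 48 hours. Endpoints are linearly interpolated between the surrounding concentrations. Abbreviation: GI50, concentration required for 50% inhibition of growth.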 Calls of active or inactive are those of the source. No stated cut-off is given here; in the data, active = GI50 up to about 1.1 µM and inactive = higher.

Experiments:
Assay in all cases: DTP human tumour cell line panel, 48 h
OVCAR-3 = test system: OVCAR-3
M14 = test system: M14
U-251 = test system: U-251
ACHN = test system: ACHN
SK-MEL-2 = test system: SK-MEL-2
OVCAR-4 = test system: OVCAR-4
SW-620 = test system: SW-620
SN12C = test system: SN12C
HOP-92 = test system: HOP-92
OVCAR-8 = test system: OVCAR-8
DU-145 = test system: DU-145
HT-29 = test system: HT-29
NCI-H522 = test system: NCI-H522
SK-OV-3 = test system: SK-OV-3
LOX IMVI = test system: LOX IMVI
UACC-62 = test system: UACC-62
SNB-75 = test system: SNB-75
RPMI-8226 = test system: RPMI-8226
MCF7 = test system: MCF7
MOLT-4 = test system: MOLT-4

Compound | GI50 (OVCAR-3) | GI50 (M14) | GI50 (U-251) | GI50 (ACHN) | GI50 (SK-MEL-2) | GI50 (OVCAR-4) | GI50 (SW-620) | GI50 (SN12C) | GI50 (HOP-92) | GI50 (OVCAR-8) | GI50 (DU-145) | GI50 (HT-29) | GI50 (NCI-H522) | GI50 (SK-OV-3) | GI50 (LOX IMVI) | GI50 (UACC-62) | GI50 (SNB-75) | GI50 (RPMI-8226) | GI50 (MCF7) | GI50 (MOLT-4)
CC(C)(C)C(=O)Nc1cccc(-c2ccc[nH]2)n1 | > 83.8 µM (inactive) | > 100 µM (inactive) | > 70.5 µM (inactive) | > 100 µM (inactive) | > 100 µM (inactive) | > 55.6 µM (inactive) | > 100 µM (inactive) | > 100 µM (inactive) | > 100 µM (inactive) | > 100 µM (inactive) | > 100 µM (inactive) | > 100 µM (inactive) | > 75 µM (inactive) | > 100 µM (inactive) | > 100 µM (inactive) | 86.9 µM (inactive) | > 60.8 µM (inactive) | < 0.01 µM (active) | > 100 µM (inactive) | 
[N-]=[N+]=CC(=O)OCC1SCCCS1 | > 100 µM (inactive) |  | > 100 µM (inactive) | 78.9 µM (inactive) | > 100 µM (inactive) | > 100 µM (inactive) | > 100 µM (inactive) | > 100 µM (inactive) | > 100 µM (inactive) |  | > 100 µM (inactive) | > 100 µM (inactive) | > 100 µM (inactive) | > 100 µM (inactive) | > 100 µM (inactive) | > 100 µM (inactive) |  | > 100 µM (inactive) | > 100 µM (inactive) | > 100 µM (inactive)
COc1ccc(OC/C(N)=N/NC(=O)c2ccncc2)cc1 | > 100 µM (inactive) | > 100 µM (inactive) | > 100 µM (inactive) | > 100 µM (inactive) | > 100 µM (inactive) | > 100 µM (inactive) | > 100 µM (inactive) | > 100 µM (inactive) | > 100 µM (inactive) | > 100 µM (inactive) | > 100 µM (inactive) | > 100 µM (inactive) | > 100 µM (inactive) | > 100 µM (inactive) | > 100 µM (inactive) | > 100 µM (inactive) | 8.22 µM (inactive) | > 100 µM (inactive) | > 100 µM (inactive) | > 100 µM (inactive)
O=C(CCc1cc(O)cc(O)c1)NCCc1ccc(O)c(O)c1 | > 100 µM (inactive) | > 100 µM (inactive) | > 100 µM (inactive) | > 100 µM (inactive) | > 100 µM (inactive) |  | > 100 µM (inactive) | > 100 µM (inactive) | > 100 µM (inactive) | > 100 µM (inactive) | > 100 µM (inactive) | > 100 µM (inactive) | > 100 µM (inactive) | > 100 µM (inactive) | > 100 µM (inactive) | > 100 µM (inactive) | > 100 µM (inactive) | > 100 µM (inactive) | > 100 µM (inactive) | > 100 µM (inactive)
Nc1nc(Nc2cc(F)c(Cl)c(F)c2)cc(=O)[nH]1 | > 100 µM (inactive) | 41.5 µM (inactive) | 81.7 µM (inactive) | 84.7 µM (inactive) | 71.4 µM (inactive) | > 100 µM (inactive) | 91 µM (inactive) | > 100 µM (inactive) | 77.3 µM (inactive) | > 100 µM (inactive) | > 100 µM (inactive) | > 100 µM (inactive) | 28.4 µM (inactive) | 68.1 µM (inactive) | > 100 µM (inactive) | 68.9 µM (inactive) | 30.7 µM (inactive) | 56.4 µM (inactive) | 75.9 µM (inactive) | 55.6 µM (inactive)
C[N+]1(CCC(=O)c2ccccc2)CCC2CCC(C2)C1 (configuration not stated) | > 100 µM (inactive) | > 100 µM (inactive) | > 100 µM (inactive) | > 100 µM (inactive) | > 100 µM (inactive) | > 100 µM (inactive) | > 100 µM (inactive) | > 100 µM (inactive) | > 100 µM (inactive) | > 100 µM (inactive) | > 100 µM (inactive) | > 100 µM (inactive) | > 100 µM (inactive) | > 100 µM (inactive) | > 100 µM (inactive) | > 100 µM (inactive) | > 100 µM (inactive) | > 100 µM (inactive) | > 100 µM (inactive) | > 100 µM (inactive)
COc1ccc(N)c(C(O)CCNC(C)=O)c1 (configuration not stated) | > 100 µM (inactive) | > 100 µM (inactive) | > 100 µM (inactive) | > 100 µM (inactive) | > 100 µM (inactive) | > 100 µM (inactive) | > 100 µM (inactive) | > 100 µM (inactive) | > 100 µM (inactive) | > 100 µM (inactive) | > 100 µM (inactive) | > 100 µM (inactive) | > 100 µM (inactive) | > 100 µM (inactive) | > 100 µM (inactive) | > 100 µM (inactive) | > 100 µM (inactive) | > 100 µM (inactive) | > 100 µM (inactive) | > 100 µM (inactive)
O=C1NC(=S)N(c2cccc3ccccc23)C(=O)/C1=C/c1c[nH]c2ccccc12 | 3.38 µM (inactive) | 1.84 µM (inactive) | 2.22 µM (inactive) | 2.37 µM (inactive) | 1.69 µM (inactive) | 2.44 µM (inactive) | 2.25 µM (inactive) | 2.02 µM (inactive) | 2.13 µM (inactive) | 2.39 µM (inactive) | 1.8 µM (inactive) | 2.17 µM (inactive) | 2.78 µM (inactive) | 4.02 µM (inactive) | 1.82 µM (inactive) | 1.7 µM (inactive) | 2.43 µM (inactive) | 2.02 µM (inactive) | 2.54 µM (inactive) | 1.87 µM (inactive)
NCCN(CCN(C(=O)Nc1ccccc1)c1ccccc1)C(=O)Nc1ccccc1 |  | 21.3 µM (inactive) | 28.9 µM (inactive) | 20.5 µM (inactive) | 19.2 µM (inactive) |  | 22.5 µM (inactive) | 23.2 µM (inactive) | 17.4 µM (inactive) | 23 µM (inactive) | 18.2 µM (inactive) | 28.5 µM (inactive) | 19 µM (inactive) | 20 µM (inactive) | 19.4 µM (inactive) | 16.6 µM (inactive) | 18.1 µM (inactive) | 27.5 µM (inactive) | 19.6 µM (inactive) | 35.5 µM (inactive)
CC(=O)N(C)c1ccc(/N=C/N(C)C)cc1 | 44 µM (inactive) | > 100 µM (inactive) | > 100 µM (inactive) | > 100 µM (inactive) | > 100 µM (inactive) | > 100 µM (inactive) |  | > 100 µM (inactive) | > 100 µM (inactive) | > 100 µM (inactive) | > 100 µM (inactive) | > 100 µM (inactive) | > 100 µM (inactive) | > 100 µM (inactive) | > 100 µM (inactive) | > 100 µM (inactive) | > 100 µM (inactive) | > 100 µM (inactive) | 82.4 µM (inactive) | > 100 µM (inactive)
CN(C)c1ccc(-c2c(C#N)c(S)n(NS(=O)(=O)c3ccccc3)c(=O)c2C#N)cc1 | 36.6 µM (inactive) | 27.6 µM (inactive) | 24.1 µM (inactive) | 26.8 µM (inactive) | 35.9 µM (inactive) | 25.6 µM (inactive) | 38.9 µM (inactive) | 20.2 µM (inactive) | 25 µM (inactive) | 16.6 µM (inactive) | 63.5 µM (inactive) |  | 14.7 µM (inactive) | 59.6 µM (inactive) | 22.1 µM (inactive) | 20.5 µM (inactive) | 25.4 µM (inactive) | 13.9 µM (inactive) | 24.2 µM (inactive) | 16.6 µM (inactive)
Cc1c(N2C(=O)C(Cl)C2c2ccc(Cl)cc2)c(=O)n(-c2ccccc2)n1C (configuration not stated) | 75.3 µM (inactive) | 62.7 µM (inactive) | 35.3 µM (inactive) | 23.7 µM (inactive) | > 100 µM (inactive) | > 100 µM (inactive) | 60.8 µM (inactive) | > 100 µM (inactive) | 60.5 µM (inactive) | > 100 µM (inactive) | > 100 µM (inactive) | > 100 µM (inactive) | 46.3 µM (inactive) | > 100 µM (inactive) | 31 µM (inactive) | 75.2 µM (inactive) |  | 16 µM (inactive) | 41.6 µM (inactive) | 31.4 µM (inactive)
OCC(O)COCn1cc(Cn2ncc3c(SCc4ccccc4)ncnc32)nn1 (configuration not stated) | > 100 µM (inactive) | > 100 µM (inactive) | > 100 µM (inactive) | > 100 µM (inactive) | > 100 µM (inactive) | > 100 µM (inactive) | > 100 µM (inactive) | > 100 µM (inactive) | > 100 µM (inactive) | > 100 µM (inactive) | > 100 µM (inactive) | > 100 µM (inactive) | 27.2 µM (inactive) | > 100 µM (inactive) | > 100 µM (inactive) | > 100 µM (inactive) |  | > 100 µM (inactive) | > 100 µM (inactive) | > 100 µM (inactive)
C1=C\SS/C=C\SS/C=C\SS/C=C\SS/1 |  | 83.9 µM (inactive) | 81.8 µM (inactive) | > 100 µM (inactive) | > 100 µM (inactive) | > 100 µM (inactive) | 51.4 µM (inactive) | > 100 µM (inactive) | 75.7 µM (inactive) | 44.8 µM (inactive) | > 100 µM (inactive) | 31.6 µM (inactive) | 15.2 µM (inactive) | > 100 µM (inactive) | 42.4 µM (inactive) | > 100 µM (inactive) |  | 58.7 µM (inactive) | 46.7 µM (inactive) | 42.3 µM (inactive)
